Experimental data taken from the NIST ThermoML archive (doi:10.1016/j.jct.2012.10.018).
Numbers after ± are expanded uncertainties.

Assay: mn = molality of the nth substance listed, in mol/kg
Details: 101 kPa, Liquid; for speed of sound: Sing-around technique in a fixed-path interferometer; for mass density: Vibrating tube method

NCC(=O)NCC(=O)O [glycylglycine] + O
Details	mass density, 293.15 K [kg/m3]	mass density, 298.15 K [kg/m3]	mass density, 303.15 K [kg/m3]	speed of sound, 293.15 K [m/s]	speed of sound, 298.15 K [m/s]	speed of sound, 303.15 K [m/s]
m1 = 0.0467	1000.84 ± 0.12	999.656 ± 0.12	998.24 ± 0.12	1486.4 ± 1.2	1500.5 ± 1.2	1512.8 ± 1.2
m1 = 0.103	1003.95 ± 0.12	1002.74 ± 0.12	1001.3 ± 0.12	1491.2 ± 1.2	1505.2 ± 1.2	1517.2 ± 1.2
m1 = 0.1479	1006.4 ± 0.12	1005.17 ± 0.12	1003.71 ± 0.12	1495 ± 1.2	1508.8 ± 1.2	1520.7 ± 1.2
m1 = 0.1998	1009.2 ± 0.12	1007.93 ± 0.12	1006.45 ± 0.12	1499.3 ± 1.2	1513 ± 1.2	1524.8 ± 1.2
m1 = 0.251	1011.92 ± 0.12	1010.63 ± 0.12	1009.13 ± 0.12	1503.5 ± 1.2	1517 ± 1.2	1528.7 ± 1.2
m1 = 0.2973	1014.35 ± 0.12	1013.04 ± 0.12	1011.52 ± 0.12	1507.3 ± 1.2	1520.6 ± 1.2	1532.2 ± 1.2
m1 = 0.347	1016.93 ± 0.12	1015.59 ± 0.12	1014.07 ± 0.12	1511.3 ± 1.2	1524.4 ± 1.2	1536 ± 1.2
m1 = 0.402	1019.73 ± 0.12	1018.38 ± 0.12	1016.83 ± 0.12	1515.7 ± 1.2	1528.7 ± 1.2	1540.2 ± 1.2
m1 = 0.4499	1022.14 ± 0.12	1020.78 ± 0.12	1019.21 ± 0.12	1519.3 ± 1.2	1532.3 ± 1.2	1543.6 ± 1.2

NCC(=O)NCC(=O)NCC(=O)O [glycylglycylglycine] + O
Details	mass density, 293.15 K [kg/m3]	mass density, 298.15 K [kg/m3]	mass density, 303.15 K [kg/m3]	mass density, 308.15 K [kg/m3]	speed of sound, 293.15 K [m/s]	speed of sound, 298.15 K [m/s]	speed of sound, 303.15 K [m/s]	speed of sound, 308.15 K [m/s]
m1 = 0.025	1000.18 ± 0.13	999.002 ± 0.13	997.591 ± 0.13	995.964 ± 0.13	1485.2 ± 1.2	1499.3 ± 1.2	1511.6 ± 1.2	1522.2 ± 1.2
m1 = 0.05	1002.1 ± 0.13	1000.91 ± 0.13	999.479 ± 0.13	997.839 ± 0.13	1487.9 ± 1.2	1501.9 ± 1.2	1514.1 ± 1.2	1524.6 ± 1.2
m1 = 0.075	1004 ± 0.13	1002.79 ± 0.13	1001.35 ± 0.13	999.696 ± 0.13	1490.5 ± 1.2	1504.4 ± 1.2	1516.5 ± 1.2	1527 ± 1.2
m1 = 0.0999	1005.88 ± 0.13	1004.66 ± 0.13	1003.2 ± 0.13	1001.54 ± 0.13	1493.1 ± 1.2	1507 ± 1.2	1518.9 ± 1.2	1529.3 ± 1.2
m1 = 0.1248	1007.76 ± 0.13	1006.52 ± 0.13	1005.05 ± 0.13	1003.37 ± 0.13	1495.6 ± 1.2	1509.5 ± 1.2	1521.3 ± 1.2	1531.6 ± 1.2
m1 = 0.15	1009.64 ± 0.13	1008.38 ± 0.13	1006.9 ± 0.13	1005.21 ± 0.13	1498.1 ± 1.2	1511.8 ± 1.2	1523.7 ± 1.2	1533.9 ± 1.2
m1 = 0.175	1011.5 ± 0.13	1010.22 ± 0.13	1008.72 ± 0.13	1007.02 ± 0.13	1500.6 ± 1.2	1514.2 ± 1.2	1526 ± 1.2	1536.1 ± 1.2
m1 = 0.1926	1012.79 ± 0.13	1011.5 ± 0.13	1010 ± 0.13	1008.29 ± 0.13	1502.3 ± 1.2	1515.9 ± 1.2	1527.7 ± 1.2	1537.7 ± 1.2
m1 = 0.2706	1018.47 ± 0.13	1017.13 ± 0.13	1015.58 ± 0.13	1013.84 ± 0.13	1509.7 ± 1.2	1522.9 ± 1.2	1534.4 ± 1.2	1544.3 ± 1.2

O [water] + NCC(=O)NCC(=O)NCC(=O)O
Details	mass density [kg/m3]
308.15 K, m2 = 0	994.08 ± 0.13
